Series [1] deals with Staphylococcus aureus. The series is described as follows: Antibacterial activity against Staphylococcus aureus KCTC 1621 strain assessed as bacterial growth inhibition measured at 18 to 24 hrs in presence of 4 uM FeCl3 by microdilution assay. The class given is functional. Conditions: time 18-24 hrs. A general note: Dilution methods test growth across graded concentrations, often in twofold steps.

Series [2] has as its system Staphylococcus aureus. The series is described as follows: Potency index, ratio of melittin MIC to test compound MIC against methicillin-resistant Staphylococcus aureus CCARM 3089 assessed as bacterial growth inhibition measured at 18 to 24 hrs by microdilution assay. Conditions: time 18-24 hrs. It is filed as functional.
The subject of series [3] is Staphylococcus aureus. The series is described as follows: Potency index, ratio of melittin MIC to test compound MIC against methicillin-resistant Staphylococcus aureus CCARM 3090 assessed as bacterial growth inhibition measured at 18 to 24 hrs by microdilution assay. The class given is functional. The settings on record: time 18-24 hrs.
In series [4] the test system is Staphylococcus aureus. The experiment in a line: Potency index, ratio of melittin MIC to test compound MIC against methicillin-resistant Staphylococcus aureus CCARM 3095 assessed as bacterial growth inhibition measured at 18 to 24 hrs by microdilution assay. The class given is functional. Conditions: time 18-24 hrs.
Series [5] deals with Pseudomonas aeruginosa. The experiment in a line: Synergistic antibacterial activity against multidrug-resistant Pseudomonas aeruginosa CCARM 2095 strain assessed as ciprofloxacin fractional inhibitory concentration in presence of ciprofloxacin by checkerboard assay. It is filed as functional.
Series [6] deals with Staphylococcus aureus. The experiment in a line: Synergistic antibacterial activity against methicillin-resistant Staphylococcus aureus CCARM 3089 strain assessed as chloramphenicol MIC by checkerboard assay. The class given is functional.
In series [7] the test system is Staphylococcus aureus. The series is described as follows: Synergistic antibacterial activity against methicillin-resistant Staphylococcus aureus CCARM 3089 strain assessed as bacterial growth inhibition in presence of chloramphenicol by checkerboard assay. It is filed as functional.
Series [8] concerns Staphylococcus aureus. The experiment in a line: Synergistic antibacterial activity against methicillin-resistant Staphylococcus aureus CCARM 3089 strain assessed as fractional inhibitory concentration in presence of chloramphenicol by checkerboard assay. The class given is functional.
Series [9] relates to Staphylococcus aureus. The experiment in a line: Synergistic antibacterial activity against multidrug-resistant Staphylococcus aureus CCARM 3089 strain assessed as chloramphenicol fractional inhibitory concentration by checkerboard assay. It is filed as functional.
The subject of series [10] is Staphylococcus aureus. The experiment in a line: Additive antibacterial activity against multidrug-resistant Staphylococcus aureus CCARM 3089 strain assessed as chloramphenicol fractional inhibitory concentration by checkerboard assay. It is filed as functional.
Series [11] deals with Staphylococcus aureus. The experiment in a line: Synergistic antibacterial activity against multidrug-resistant Staphylococcus aureus CCARM 3089 strain assessed as fractional inhibitory concentration index in presence of chloramphenicol by checkerboard assay. The class given is functional.
Series [12] has as its system Pseudomonas aeruginosa. The experiment in a line: Additive antibacterial activity against multidrug-resistant Pseudomonas aeruginosa CCARM 2095 strain assessed as chloramphenicol MIC by checkerboard assay. The class given is functional.
Series [13] relates to Pseudomonas aeruginosa. The experiment in a line: Additive antibacterial activity against multidrug-resistant Pseudomonas aeruginosa CCARM 2095 strain assessed as Oxacillin MIC by checkerboard assay. It is filed as functional.
Series [14] relates to Pseudomonas aeruginosa. The series is described as follows: Additive antibacterial activity against multidrug-resistant Pseudomonas aeruginosa CCARM 2095 strain assessed as bacterial growth inhibition in presence of ciprofloxacin by checkerboard assay. The class given is functional.
Series [15] has as its system Pseudomonas aeruginosa. The experiment in a line: Additive antibacterial activity against multidrug-resistant Pseudomonas aeruginosa CCARM 2095 strain assessed as bacterial growth inhibition in presence of oxacillin by checkerboard assay. The class given is functional.
Series [16] has as its system Pseudomonas aeruginosa. The experiment in a line: Additive antibacterial activity against multidrug-resistant Pseudomonas aeruginosa CCARM 2095 strain assessed as chloramphenicol fractional inhibitory concentration by checkerboard assay. The class given is functional.
For series [17], the system named is Pseudomonas aeruginosa. The experiment in a line: Additive antibacterial activity against multidrug-resistant Pseudomonas aeruginosa CCARM 2095 strain assessed as ciprofloxacin fractional inhibitory concentration by checkerboard assay. It is filed as functional.
Series [18] deals with Pseudomonas aeruginosa. The series is described as follows: Additive antibacterial activity against multidrug-resistant Pseudomonas aeruginosa CCARM 2095 strain assessed as oxacillin fractional inhibitory concentration by checkerboard assay. It is filed as functional.
Series [19] concerns Pseudomonas aeruginosa. The experiment in a line: Additive antibacterial activity against multidrug-resistant Pseudomonas aeruginosa CCARM 2095 strain assessed as fractional inhibitory concentration in presence of ciprofloxacin by checkerboard assay. The class given is functional.
Series [20] relates to Pseudomonas aeruginosa. The experiment in a line: Additive antibacterial activity against multidrug-resistant Pseudomonas aeruginosa CCARM 2095 strain assessed as fractional inhibitory concentration in presence of oxacillin by checkerboard assay. It is filed as functional.
Series [21] deals with Pseudomonas aeruginosa. The series is described as follows: Additive antibacterial activity against multidrug-resistant Pseudomonas aeruginosa CCARM 2095 strain assessed as fractional inhibitory concentration index in presence of ciprofloxacin by checkerboard assay. It is filed as functional.
Series [22] concerns Pseudomonas aeruginosa. The series is described as follows: Additive antibacterial activity against multidrug-resistant Pseudomonas aeruginosa CCARM 2095 strain assessed as fractional inhibitory concentration index in presence of oxacillin by checkerboard assay. It is filed as functional.
For series [23], the system named is Staphylococcus aureus. The experiment in a line: Additive antibacterial activity against methicillin-resistant Staphylococcus aureus CCARM 3089 strain assessed as oxacillin MIC by checkerboard assay. The class given is functional.
Series [24] has as its system Staphylococcus aureus. The experiment in a line: Additive antibacterial activity against methicillin-resistant Staphylococcus aureus CCARM 3089 strain assessed as bacterial growth inhibition in presence of oxacillin by checkerboard assay. The class given is functional.
In series [25] the test system is Staphylococcus aureus. The experiment in a line: Antibacterial activity against multidrug-resistant Staphylococcus aureus CCARM 3089 strain assessed as fractional inhibitory concentration by checkerboard assay. The class given is functional.
The test system of series [26] is Staphylococcus aureus. The experiment in a line: Antibacterial activity against multidrug-resistant Staphylococcus aureus CCARM 3089 strain assessed as ciprofloxacin fractional inhibitory concentration by checkerboard assay. It is filed as functional.
Series [27] in a line: Drug localization in Escherichia coli KCTC 1682 cytoplasm incubated for 0.5 hrs by CDFA based confocal laser scanning microscopic analysis. The class given is ADME, subcellular.
In series [28] the test system is Pseudomonas aeruginosa. The series is described as follows: Synergistic bactericidal activity against multidrug-resistant Pseudomonas aeruginosa CCARM 2095 at 0.5 times MIC measured after 60 mins in presence of 0.5 times MIC of ciprofloxacin by time-kill kinetics assay. The class given is functional, organism-based.
Series [29] concerns Pseudomonas aeruginosa. The series is described as follows: Synergistic bactericidal activity against multidrug-resistant Pseudomonas aeruginosa CCARM 2095 at 0.5 times MIC measured after 60 mins in presence of 0.5 times MIC of oxacillin by time-kill kinetics assay. It is filed as functional, organism-based.
Series [30] has as its system Pseudomonas aeruginosa. The experiment in a line: Antibiofilm activity against multidrug-resistant Pseudomonas aeruginosa assessed as bacterial growth inhibition at 8 ug/ml relative to control. It is filed as functional.
The test system of a further series is Escherichia coli. The series is described as follows: Antibacterial activity against Escherichia coli assessed as bacterial growth inhibition measured at 18 to 24 hrs in presence of CDFA based microdilution assay. It is filed as functional. Conditions: time 18-24 hrs.
Series [31] concerns Pseudomonas aeruginosa. The series is described as follows: Antibacterial activity against multidrug-resistant Pseudomonas aeruginosa CCARM 2095 strain assessed as bacterial growth inhibition by checkerboard assay. The class given is functional.
Series [32] concerns Pseudomonas aeruginosa. The series is described as follows: Antibacterial activity against multidrug-resistant Pseudomonas aeruginosa CCARM 2095 strain assessed as chloramphenicol MIC by checkerboard assay. It is filed as functional.
The subject of series [33] is Pseudomonas aeruginosa. The series is described as follows: Antibacterial activity against multidrug-resistant Pseudomonas aeruginosa CCARM 2095 strain assessed as bacterial growth inhibition in presence of chloramphenicol by checkerboard assay. The class given is functional.
The subject of series [34] is Pseudomonas aeruginosa. The series is described as follows: Antibacterial activity against multidrug-resistant Pseudomonas aeruginosa CCARM 2095 strain assessed as fractional inhibitory concentration in presence of chloramphenicol by checkerboard assay. It is filed as functional.
Series [35] has as its system Pseudomonas aeruginosa. The experiment in a line: Antibacterial activity against multidrug-resistant Pseudomonas aeruginosa CCARM 2095 strain assessed as fractional inhibitory concentration by checkerboard assay. It is filed as functional.
Series [36] deals with Pseudomonas aeruginosa. The series is described as follows: Antibacterial activity against multidrug-resistant Pseudomonas aeruginosa CCARM 2095 strain assessed as fractional inhibitory concentration index in presence of chloramphenicol by checkerboard assay. It is filed as functional.
Series [37] relates to Staphylococcus aureus. The series is described as follows: Additive antibacterial activity against methicillin-resistant Staphylococcus aureus CCARM 3089 strain assessed as ciprofloxacin MIC by checkerboard assay. It is filed as functional.
The test system of series [38] is Staphylococcus aureus. The experiment in a line: Additive antibacterial activity against methicillin-resistant Staphylococcus aureus CCARM 3089 strain assessed as bacterial growth inhibition in presence of ciprofloxacin by checkerboard assay. The class given is functional.
The test system of series [39] is Staphylococcus aureus. The experiment in a line: Additive antibacterial activity against multidrug-resistant Staphylococcus aureus CCARM 3089 strain assessed as fractional inhibitory concentration index in presence of ciprofloxacin by checkerboard assay. The class given is functional.

Active and inactive are the calls of the source. The rule behind the calls is not given here.

As usually defined, the MIC is the lowest concentration found to suppress growth. As usually defined, the inhibition is the change of the read-out against control, counted positive when it falls.

`NCCCN(CCCN)c1nc(NCc2ccccc2)nc(N2CC(Cc3ccccc3)N(c3nc(NCc4ccccc4)nc(N(CCCN)CCCN)n3)CC2Cc2ccccc2)n1` (stereo unspecified): the figures for the MIC with Staphylococcus aureus [1], in the series with Staphylococcus aureus [6] and in the series with Staphylococcus aureus [7] were 5 µM, 128 µg/mL and 1 µg/mL, respectively. The Ratio with Staphylococcus aureus [2], in the series on Staphylococcus aureus [3] and in the series with Staphylococcus aureus [4] was 2 in each case. The FIC worked out at 0.25 with Pseudomonas aeruginosa [5], 0.5 with Staphylococcus aureus [8], 0.25 in the series with Staphylococcus aureus [9] and 0.25 in the series on Staphylococcus aureus [10]. For the same compound, the “fractional inhibitory concentration index (FICI)” value with Staphylococcus aureus [11] came to 0.5.
Turning to `N=C(N)NCCNc1nc(NCCNC(=N)N)nc(N2CC(Cc3ccccc3)N(c3nc(NCCNC(=N)N)nc(NCCNC(=N)N)n3)CC2Cc2ccccc2)n1` (stereo unspecified), the MIC came out at 9.6 µM with Staphylococcus aureus [1]; 256 µg/mL in the series on Pseudomonas aeruginosa [12]; 256 µg/mL in the series with Pseudomonas aeruginosa [13]; 16 µg/mL in the series on Pseudomonas aeruginosa [14]; 16 µg/mL with Pseudomonas aeruginosa [15]; 128 µg/mL in the series with Staphylococcus aureus [23]. In addition, the MIC with Staphylococcus aureus [24] was determined as 4 µg/mL. The FIC in the series on Pseudomonas aeruginosa [16] is 0.25; with Pseudomonas aeruginosa [17], 0.5; with Pseudomonas aeruginosa [18], 0.25; with Pseudomonas aeruginosa [19], 0.5; in the series with Pseudomonas aeruginosa [20], 0.5; in the series on Staphylococcus aureus [25], 1. Further, in the series with Staphylococcus aureus [26], the FIC is listed as 0.25. Further, the results for the “fractional inhibitory concentration index (FICI)” value in the series on Pseudomonas aeruginosa [21] and in the series with Pseudomonas aeruginosa [22] were 1 and 0.75, respectively.
As to `NCCN(CCN)c1nc(NCc2ccccc2)nc(N2CC(Cc3ccccc3)N(c3nc(NCc4ccccc4)nc(N(CCN)CCN)n3)CC2Cc2ccccc2)n1` (stereo unspecified), the MIC in the series with Staphylococcus aureus [1] came out at 5.4 µM; in the series with Staphylococcus aureus [6], 128 µg/mL; in the series on Staphylococcus aureus [7] it was 2 µg/mL; in the series on Escherichia coli, 8 µg/mL. The Ratio in the series on Staphylococcus aureus [2], with Staphylococcus aureus [3] and in the series with Staphylococcus aureus [4] was 2 in each case. Besides, the Drug uptake result in [27] is “Active”. In addition, the FIC turned out to be 0.125 in the series on Pseudomonas aeruginosa [5], 0.5 with Staphylococcus aureus [8], 0.25 in the series with Staphylococcus aureus [9] and 0.25 in the series on Staphylococcus aureus [10]. Also, in the series with Staphylococcus aureus [11], the “fractional inhibitory concentration index (FICI)” value was found to be 0.5. For the same compound, the outcome in the series with Pseudomonas aeruginosa [28] and with Pseudomonas aeruginosa [29] was Active. The inhibition at 8 µg/mL in the series with Pseudomonas aeruginosa [30] worked out at 100%.
In the case of `NCCCCNc1nc(NCCCCN)nc(N2CC(Cc3ccccc3)N(c3nc(NCCCCN)nc(NCCCCN)n3)CC2Cc2ccccc2)n1` (stereo unspecified), the MIC in the series with Staphylococcus aureus [1] turned out to be 20.8 µM. Also, the FIC with Pseudomonas aeruginosa [5] is on record as 0.25.
`NCCNc1nc(NCCN)nc(N2CC(Cc3ccccc3)N(c3nc(NCCN)nc(NCCN)n3)CC2Cc2ccccc2)n1` (stereo unspecified): the MIC came to 6.1 µM in the series on Staphylococcus aureus [1]; 16 µg/mL in the series with Pseudomonas aeruginosa [31]; 256 µg/mL in the series on Pseudomonas aeruginosa [32]; 512 µg/mL in the series with Pseudomonas aeruginosa [13]; 16 µg/mL in the series with Pseudomonas aeruginosa [33]; 8 µg/mL with Pseudomonas aeruginosa [15]. Further, the MIC came out at 128 µg/mL in the series on Staphylococcus aureus [37] and 16 µg/mL with Staphylococcus aureus [38]. For the same compound, the FIC was found to be 1 µg/mL in the series with Pseudomonas aeruginosa [34]; 0.25 with Pseudomonas aeruginosa [35]; 0.5 in the series with Pseudomonas aeruginosa [18]; 0.25 in the series with Pseudomonas aeruginosa [5]; 0.5 with Pseudomonas aeruginosa [20]. Also, the “fractional inhibitory concentration index (FICI)” value in the series with Pseudomonas aeruginosa [36] is on record as 1.25; in the series with Pseudomonas aeruginosa [22], 1; in the series on Staphylococcus aureus [39], 0.75.
